ChEMBL document CHEMBL1155053, “Discovery of new Gram-negative antivirulence drugs: structure and properties of novel E. coli WaaC inhibitors” (Bioorg Med Chem Lett, 2008)

Test: Inhibition of Escherichia coli heptosyltransferase Waac

IC50 [µM]	SMILES
49	COC(=O)c1cccc(-c2ccc(/C=C3\C(=O)N(c4cccc(C(=O)O)c4)N=C3C)o2)c1 (mixture of isomers)
3	CC1=NN(c2cccc(C(=O)O)c2)C(=O)/C1=C\c1ccc(-c2ccc(C(=O)O)cc2)o1
2	CC1=NN(c2cccc(C(=O)O)c2)C(=O)/C1=C\c1ccc(-c2cccc(C(=O)O)c2)o1 (mixture of isomers)
15	CC(=O)c1cccc(-c2ccc(/C=C3\C(=O)N(c4cccc(C(=O)O)c4)N=C3C)o2)c1 (mixture of isomers)
> 100	COC(=O)c1cccc(N2N=C(C)/C(=C/c3ccc(-c4cccc(C(=O)O)c4)o3)C2=O)c1 (mixture of isomers)
51	CC1=NN(c2ccc(C(=O)O)cc2)C(=O)/C1=C\c1ccc(-c2ccc(C(=O)O)cc2)o1 (mixture of isomers)
3.1	CC1=NN(c2ccc(C(=O)O)cc2)C(=O)/C1=C\c1ccc(-c2ccc(Cl)c(C(=O)O)c2)o1
1	CC1=NN(c2cccc(C(=O)O)c2)C(=O)/C1=C\c1ccc(-c2ccc(Cl)c(C(=O)O)c2)o1 (mixture of isomers)
> 100	CC1=NN(c2cccc(C(=O)O)c2)C(=O)/C1=C\c1ccc(-c2ccc(S(N)(=O)=O)cc2)o1 (mixture of isomers)
31	CC1=NN(c2cccc(C(=O)O)c2)C(=O)/C1=C\c1ccc(-c2ccc(C(=O)O)c(C)c2)o1
55	CC1=NN(c2ccc(C(=O)O)cc2)C(=O)/C1=C\c1ccc(-c2ccccc2)o1
> 100	CC1=NN(c2ccccc2)C(=O)/C1=C\c1ccc(-c2ccc(Cl)c(C(=O)O)c2)o1 (mixture of isomers)
18	CC1=NN(c2ccc(C(=O)O)cc2)C(=O)/C1=C\c1ccc(-c2cccc(C(N)=O)c2)o1 (mixture of isomers)
> 100	CC1=NN(c2cccc(C)c2)C(=O)/C1=C\c1ccc(-c2cccc(C(=O)O)c2)o1 (mixture of isomers)
